Measured values reported in patent US12421252B2, “Spiro (isobenzofuranazetidine) compounds for the treatment of autoimmune disease” (Hoffmann-La Roche Inc., priority 2020, dated 2025).

Key:
[1] = target: T1, CYP3A4 (Homo sapiens, UniProt P08684); experiment: CYP inhibition assay in human liver microsome, CYP3A4; assay type: in vitro ADME; details: percentage inhibition, substrate Midazolam 5 μM, <0: not or weak inhibitor
T1 construct: tissue BD-Gentest 452117; host or cells: human liver microsomes
Method: (§1) This is a high throughput screening assay used for assessment of reversible inhibition of CYP2C9, CYP2D6, and CYP3A4 activity of test compounds in human liver microsome (HLM) in early discovery stage.
(§2) Procedure 10 mM DMSO stock solutions of test compounds were diluted in DMSO to generate 2 mM intermediate stock solution. 250 nL of intermediate stock solution were transferred in duplicate into 3 separate 384 well microtitre plates (assay-ready plates). A mixture of HLM and each substrate was made up. 45 μL of HLM substrate mix was then transferred to each well of an assay ready plate and mixed. The negative (solvent) and positive controls (standard inhibitor for each CYP) were included in each assay ready plate. The assay ready plate was warmed to 37° C. in an incubator over 10 minutes. 5 μL pre-warmed NADPH regenerating system was added to each incubation well to start the reaction. Final incubation volume was 50 μL. The assay plate then was placed back in the 37° C. incubator. After incubation (10 minutes for CYP2D6) for 5 minutes, incubates were quenched by addition of 50 μL 100% acetonitrile containing internal standards (400 ng/mL 13C6-4′-OH-Diclofenac, 20 ng/mL D3-Dextrorphan and 20 ng/mL D4-1′OH-Midazolam). The supernatants were collected for RapidFire/MS/MS analysis.
(§3) RapidFire online solid phase extraction/sample injection system (Agilent) coupled with API4000 triple quadrupole mass spectrometer (AB Sciex) were used for sample analysis. The mobile phase composed of acetonitrile and water supplemented with 0.1% formic acid. A C4 solid phase extraction cartridge is used for sample separation. MS detection is achieved in positive ion MRM mode.
(§4) Data analysis Peak areas for substrate, metabolite and internal standard are determined using the RapidFire integrator software (version 3.6.12009.12296). Peak area ratios (PAR) of metabolite and internal standard (stable-labelled metabolite) are then calculated. The measurement window for each experiment is then defined: PAR (0% activity)=average PAR for all incubations containing concentrated inhibitor; Par (100% activity)=average PAR for all incubations containing no inhibitor (DMSO controls); % Activity (test inhibitor)=[PAR (test inhibitor)-PAR (0% activity)]/[PAR (100% activity)-PAR (0% activity)]; % Inhibition (test inhibitor)=100-% Activity (test inhibitor).

[2] = target: T2, CYP2D6 (Homo sapiens, UniProt P10635); experiment: CYP inhibition assay in human liver microsome, CYP2D6; assay type: in vitro ADME; details: percentage inhibition, substrate Dextromethorphan 5 μM, <0: not or weak inhibitor
T2 construct: tissue BD-Gentest 452117; host or cells: human liver microsomes
Method: as §1, §2, §3, §4

[3] = target: T3, human TLR7 (Homo sapiens, UniProt Q9NYK1); experiment: HEK293-Blue-hTLR-7 cells assay; assay type: cell-based; details: HEK293-Blue-hTLR7 cells, R848 stimulation, 20 hrs, SEAP reporter; read-out: HEK/hTLR7 IC50
T3 sequence (Q9NYK1 27-1049): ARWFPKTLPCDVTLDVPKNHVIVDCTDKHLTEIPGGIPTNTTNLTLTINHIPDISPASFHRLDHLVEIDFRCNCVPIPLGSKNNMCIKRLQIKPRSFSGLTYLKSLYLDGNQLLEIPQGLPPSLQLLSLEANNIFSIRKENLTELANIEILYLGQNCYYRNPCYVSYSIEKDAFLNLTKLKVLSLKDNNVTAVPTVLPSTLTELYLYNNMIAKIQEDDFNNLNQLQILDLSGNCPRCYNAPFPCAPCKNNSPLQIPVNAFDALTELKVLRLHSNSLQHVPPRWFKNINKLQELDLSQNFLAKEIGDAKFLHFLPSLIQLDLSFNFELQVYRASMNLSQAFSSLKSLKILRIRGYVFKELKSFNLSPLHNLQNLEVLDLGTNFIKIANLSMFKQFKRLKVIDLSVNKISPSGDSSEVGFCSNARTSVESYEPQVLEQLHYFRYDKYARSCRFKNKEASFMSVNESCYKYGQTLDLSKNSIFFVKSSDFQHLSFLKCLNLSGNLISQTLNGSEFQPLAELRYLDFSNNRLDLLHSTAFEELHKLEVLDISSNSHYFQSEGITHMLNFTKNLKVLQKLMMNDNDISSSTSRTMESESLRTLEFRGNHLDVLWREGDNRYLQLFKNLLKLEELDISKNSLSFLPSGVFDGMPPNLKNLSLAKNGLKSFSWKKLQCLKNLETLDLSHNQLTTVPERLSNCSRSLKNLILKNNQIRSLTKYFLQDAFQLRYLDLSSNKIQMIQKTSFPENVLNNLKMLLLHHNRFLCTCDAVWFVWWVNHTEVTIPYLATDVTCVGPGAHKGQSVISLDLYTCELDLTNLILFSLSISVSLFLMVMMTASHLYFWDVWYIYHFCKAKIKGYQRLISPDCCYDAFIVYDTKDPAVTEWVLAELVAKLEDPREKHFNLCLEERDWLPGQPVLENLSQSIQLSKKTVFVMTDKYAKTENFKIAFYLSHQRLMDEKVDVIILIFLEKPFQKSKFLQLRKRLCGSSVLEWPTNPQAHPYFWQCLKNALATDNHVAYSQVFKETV
From the text: HEK293-Blue-hTLR-7 cells assay:
A stable HEK293-Blue-hTLR-7 cell line was purchased from InvivoGen (Cat. #: hkb-htlr7, San Diego, California, USA). These cells were originally designed for studying the stimulation of human TLR7 by monitoring the activation of NF-κB. A SEAP (secreted embryonic alkaline phosphatase) reporter gene was placed under the control of the IFN-β minimal promoter fused to five NF-κB and AP-1-binding sites. The SEAP was induced by activating NF-κB and AP-1 via stimulating HEK-Blue hTLR7 cells with TLR7 ligands. Therefore the reporter expression was declined by TLR7 antagonist under the stimulation of a ligand, such as R848 (Resiquimod), for incubation of 20 hrs. The cell culture supernatant SEAP reporter activity was determined using QUANTI-Blue™ kit (Cat. #: rep-qb1, Invivogen, San Diego, Ca, USA) at a wavelength of 640 nm, a detection medium that turns purple or blue in the presence of alkaline phosphatase.
HEK293-Blue-hTLR7 cells were incubated at a density of 250,000˜450,000 cells/mL in a volume of 170 μL in a 96-well plate in Dulbecco's Modified Eagle's medium (DMEM) containing 4.5 g/L glucose, 50 U/mL penicillin, […], […], 2 mM L-glutamine, 10% (v/v) heat-inactivated fetal bovine serum with addition of 20 μL test compound in a serial dilution in the presence of final DMSO at 1% and 10 μL of 20 uM R848 in above DMEM, perform incubation under 37° C. in a CO2 incubator for 20 hrs. Then 20 μL of the supernatant from each well was incubated with 180 μL Quanti-blue substrate solution at 37° C. for 2 hrs and the absorbance was read at 620˜655 nm using a spectrophotometer. The signaling pathway that TLR7 activation leads to downstream NF-κB activation has been widely accepted, and therefore similar reporter assay was modified for evaluating TLR7 antagonist.

T2 sequence (P10635 whole entry): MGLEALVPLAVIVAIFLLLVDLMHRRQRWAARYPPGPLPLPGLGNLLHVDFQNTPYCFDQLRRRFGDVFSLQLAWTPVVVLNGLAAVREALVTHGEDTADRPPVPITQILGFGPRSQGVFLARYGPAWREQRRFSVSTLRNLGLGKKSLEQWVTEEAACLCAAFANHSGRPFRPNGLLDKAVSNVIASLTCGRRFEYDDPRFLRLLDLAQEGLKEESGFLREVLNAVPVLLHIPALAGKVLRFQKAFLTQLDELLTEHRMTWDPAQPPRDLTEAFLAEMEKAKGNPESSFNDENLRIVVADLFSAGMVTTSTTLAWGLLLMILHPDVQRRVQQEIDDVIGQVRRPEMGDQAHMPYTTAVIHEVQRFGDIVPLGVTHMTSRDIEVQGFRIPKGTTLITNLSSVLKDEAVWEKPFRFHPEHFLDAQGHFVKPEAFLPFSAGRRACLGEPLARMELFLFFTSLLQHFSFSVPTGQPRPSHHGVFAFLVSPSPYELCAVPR
T1 sequence (P08684 whole entry): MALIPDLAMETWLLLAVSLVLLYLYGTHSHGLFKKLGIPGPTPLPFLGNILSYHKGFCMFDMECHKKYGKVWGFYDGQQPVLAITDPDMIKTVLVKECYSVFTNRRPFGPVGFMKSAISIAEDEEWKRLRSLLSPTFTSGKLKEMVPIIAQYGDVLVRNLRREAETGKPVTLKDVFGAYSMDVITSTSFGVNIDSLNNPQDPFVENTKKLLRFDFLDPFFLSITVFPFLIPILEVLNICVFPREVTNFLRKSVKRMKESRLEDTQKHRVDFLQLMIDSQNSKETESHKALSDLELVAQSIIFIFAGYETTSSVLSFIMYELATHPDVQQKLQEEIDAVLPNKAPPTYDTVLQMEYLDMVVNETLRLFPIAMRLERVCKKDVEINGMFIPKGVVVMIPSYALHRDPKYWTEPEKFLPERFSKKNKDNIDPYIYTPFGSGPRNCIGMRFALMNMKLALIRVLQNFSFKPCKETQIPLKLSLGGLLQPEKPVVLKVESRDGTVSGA

SMILES	CYP (%) 3A4 [1]	CYP (%) 2D6 [2]	IC50 [3]
[2H]c1ccc2c(N3C[C@H](CN4CC5(C4)OCc4cc(N6C[C@H]7NCCO[C@@H]7C6)ccc45)O[C@H](C)C3)ccc(C#N)c2n1 [Example 17, 5-[(2S,6R)-2-[[6-[(4aR,7aR)-3,4,4a,5,7,7a-hexahydro-2H-pyrrolo[3,4-b][1,4]oxazin-6-yl]spiro[1H-isobenzofuran-3,3′-azetidine]-1′-yl]methyl]-6-methyl-morpholin-4-yl]-2-deuterio-quinoline-8-carbonitrile]	14%	18.5%	15 nM
[2H]c1ccc2c(N3C[C@H](CN4CC5(C4)OCc4cc(N6CC(N)C6)cnc45)O[C@H](C)C3)ccc(C#N)c2n1 [Example 20, 5-[(2S,6R)-2-[[3-(3-aminoazetidin-1-yl)spiro[5H-furo[3,4-b]pyridine-7,3′-azetidine]-1′-yl]methyl]-6-methyl-morpholin-4-yl]-2-deuterio-quinoline-8-carbonitrile]	40.5%	13%	9 nM
[2H]c1ccc2c(N3C[C@H](CN4CC5(C4)OCc4cc(N6CC(C)(N)C6)cnc45)O[C@H](C)C3)ccc(C#N)c2n1 [Example 21, 5-[(2S,6R)-2-[[3-(3-amino-3-methyl-azetidin-1-yl)spiro[5H-furo[3,4-b]pyridine-7,3′-azetidine]-1′-yl]methyl]-6-methyl-morpholin-4-yl]-2-deuterio-quinoline-8-carbonitrile]	12.5%	5%	7 nM
[2H]c1ccc2c(N3C[C@H](CN4CC5(C4)OCc4cc(N6CC(N)C6)ncc45)O[C@H](C)C3)ccc(C#N)c2n1 [Example 32, 5-[(2S,6R)-2-[[6-(3-aminoazetidin-1-yl)spiro[1H-furo[3,4-c]pyridine-3,3′-azetidine]-1′-yl]methyl]-6-methyl-morpholin-4-yl]-2-deuterio-quinoline-8-carbonitrile]			4 nM

The remaining compounds from weak to strong by IC50 [3], led by results:

CYP (%) 3A4 [1]	CYP (%) 2D6 [2]	IC50 [3]	SMILES
−0.5%	3.5%	16 nM	C[C@@H]1CN(c2ccc(C#N)n3ncc(F)c23)C[C@H](CN2CC3(C2)OCc2cc(N4CC(C)(N)C4)ncc23)O1 [Example 24, 4-[(2S,6R)-2-[[6-(3-amino-3-methyl-azetidin-1-yl)spiro[1H-furo[3,4-c]pyridine-3,3′-azetidine]-1′-yl]methyl]-6-methyl-morpholin-4-yl]-3-fluoro-pyrazolo[1,5-a]pyridine-7-carbonitrile]
16.5%	−2%	15 nM	C[C@@H]1CN(c2ccc(C#N)n3nccc23)C[C@H](CN2CC3(C2)OCc2cc(N4CC5(CNCCO5)C4)ccc23)O1 [Example 7, 4-[(2R,6S)-2-methyl-6-[[6-(5-oxa-2,8-diazaspiro[3.5]nonan-2-yl)spiro[1H-isobenzofuran-3,3′-azetidine]-1′-yl]methyl]morpholin-4-yl]pyrazolo[1,5-a]pyridine-7-carbonitrile]
		13 nM	C[C@@H]1CN(c2ccc(C#N)n3ncc(F)c23)C[C@H](CN2CC3(C2)OCc2cc(N4CC(C)(N)C4)cnc23)O1 [Example 33, 4-[(2S,6R)-2-[[3-(3-amino-3-methyl-azetidin-1-yl)spiro[5H-furo[3,4-b]pyridine-7,3′-azetidine]-1′-yl]methyl]-6-methyl-morpholin-4-yl]-3-fluoro-pyrazolo[1,5-a]pyridine-7-carbonitrile]
		7 nM	[2H]c1ccc2c(N3C[C@H](CN4CC5(C4)OCc4cc(N6C[C@@H](N)[C@H](OC)C6)cnc45)O[C@H](C)C3)ccc(C#N)c2n1 [Example 31, 5-[(2S,6R)-2-[[3-[(3R,4R)-3-amino-4-methoxy-pyrrolidin-1-yl]spiro[5H-furo[3,4-b]pyridine-7,3′-azetidine]-1′-yl]methyl]-6-methyl-morpholin-4-yl]-2-deuterio-quinoline-8-carbonitrile]
